Tests used:
[1] = test system: T47D (PI3Kα H1047R mutant) cells; experiment: Cell viability (CellTiter-Glo 2.0) in T47D cells; assay type: cell-based; conditions: Homo sapiens, T47D, 72 h, approximately 72 hours
Procedure: This Example illustrates that representative compounds of the invention decrease the viability of cells.
The ability of a compound of Formula (I) to decrease the viability of cells was measured using CellTiter-Glo 2.0 (CTG) Luminescent Cell Viability Assay (#G9241) obtained from Promega (Madison, WI).
To prepare assay plates for viability assays, cells were trypsinized, resuspended in fresh media, and viable cells were counted utilizing trypan blue exclusion. T47D, SKBR3, or MKN1 cells were seeded at 1000 cells in 30 μl per well in a solid white flat bottom 384 cell culture plate (Perkin Elmer #6007680) and incubated at 37° C. overnight.
Assay day 1, cells were dosed using an Echo Liquid Handler (Beckman Coulter) with compounds at a 10 μm starting concentration and serially diluted (1:4) for a total of 10 concentrations. Cells were incubated for approximately 72 hours with the compounds (solubilized in DMSO) at 37° C. After 72 hours of treatment, cell plates were equilibrated to room temperature before adding 15 μl of CTG to each well, plates were then covered in aluminum foil to protect from light, incubated at room temperature for 30 minutes on a microtiter plate shaker, and luminescence readings were collected using a CLARIOstar microplate reader (BMG Labtech, Germany). Percent of vehicle control values were plotted as log(inhibitor) vs. response—Variable slope (four parameters) for curve fitting and IC50 values were determined using XLfit.

[2] = test system: pAKT in T47D (PI3Kα H1047R mutant) cells; experiment: Inhibition of pAKT (alphaLISA Surefire Ultra AKT 1/2/3 pS473) in T47D cells; assay type: cell-based; conditions: Homo sapiens; T47D (PI3Kα H1047R mutant) cells, 24 hr compound incubation, alphaLISA pS473; read-out: T47D (H1047R) pAKT 24 hr (IC50)
Procedure: The ability of a compound of Formula (I) to inhibit the formation of pAKT was measured using alphaLISA Surefire Ultra AKT 1/2/3 (pS473) Assay Kit (#ALSU-PAKT-B50K) was obtained from Perkin Elmer (Waltham, MA).
To prepare assay plates for pAKT alphaLISA assays, cells were trypsinized, resuspended in fresh media, and viable cells were counted utilizing trypan blue exclusion. Prior to seeding, cells were washed with PBS and resuspended in HBSS (Gibco, #14025092). T47D (12,000/w), SKBR3 (12,000/w), or MKN1 (24,000/w) cells were seeded at 12 μl per well in a solid white flat bottom 384 cell culture plate (Perkin Elmer #6007680).
Immediately after seeding, cells were dosed using an Echo Liquid Handler (Beckman Coulter) with compounds at a 10.4 μm starting concentration and serially diluted (1:4) for a total of 10 concentrations. 14 vehicle (DMSO) and 14 positive control (Alpelisib @3.125 μm) wells were included on each assay plate. Cells were incubated with the compounds (solubilized in DMSO) for approximately 24 hours at 37° C. After 24 hours of treatment, cells were lysed with 3 μl of the 5× lysis buffer (provided and incubated at room temperature for 15 min on a microtiter plate shaker). Once cells were sufficiently lysed, 7.5 μl of the acceptor bead mix (made using the manufacturers recommended dilutions) was added to each well and left on the microtiter plate shaker for 1 min prior to incubating plates at room temperature for 1 hour, in the absence of light. After 1 hour of incubation with the acceptor bead mix, 7.5 μl of the donor bead mix (made using the manufacturers recommended dilutions) was added to each well and left on the microtiter plate shaker for 1 min prior to incubating plates at room temperature overnight in the absence of light. Plates were then imaged the following day using a CLARIOstar microplate reader (BMG Labtech, Germany).
Percent of control values were calculated by subtracting the average signal from the positive control (alpelisib) treated wells from all treated wells (including DMSO control wells) and then divided by the average signal from the vehicle DMSO treated control wells. Percent of vehicle control values were plotted as log(inhibitor) vs. response—Variable slope (four parameters) for curve fitting and IC50 values were determined using XLfit.

Row | IC50 [1] [nM] | IC50 [2] [nM] | SMILES
1 | 1170 | > 10400 | Cc1cc([C@@H](C)Nc2nccnc2C(=O)O)c2nc(N3CCC(F)(F)CC3)c(C#N)nc2c1 [Example 113, (R)-3-((1-(2-cyano-3-(4,4-difluoropiperidin-1-yl)-7-methylquinoxalin-5-yl)ethyl)amino)pyrazine-2-carboxylic acid]
2 | 36.6 | 4.4 | Cc1cc([C@@H](C)Nc2ccc(Cl)nc2C(=O)O)c2nc(N3C[C@H]4C[C@@H]3CO4)c(C#N)nc2c1 [Example 174, 3-(((R)-1-(3-((1R,4R)-2-oxa-5-azabicyclo[2.2.1]heptan-5-yl)-2-cyano-7-methylquinoxalin-5-yl)ethyl)amino)-6-chloropicolinic acid]
3 | 38.6 | 1.2 | COC[C@@H]1[C@H]2CN(c3nc4c([C@@H](C)Nc5ccc(Cl)nc5C(=O)O)cc(C)cc4nc3C#N)C[C@@H]12 [Example 166, 6-chloro-3-(((R)-1-(2-cyano-3-((1R,5S,6R)-6-(methoxymethyl)-3-azabicyclo[3.1.0]hexan-3-yl)-7-methylquinoxalin-5-yl)ethyl)amino)picolinic acid]
4 | 88.1 | 3.6 | Cc1cc([C@@H](C)Nc2ccc(Cl)nc2C(=O)O)c2nc(N3CC[C@H](CO)C3)c(C#N)nc2c1 [Example 158, 6-chloro-3-(((R)-1-(2-cyano-3-((S)-3-(hydroxymethyl)pyrrolidin-1-yl)-7-methylquinoxalin-5-yl)ethyl)amino)picolinic acid]
5 | 24.8 | 0.8 | Cc1cc([C@@H](C)Nc2ccc(Cl)nc2C(=O)O)c2nc(N3CCC(c4ccnn4C)CC3)c(C#N)nc2c1 [Example 126, (R)-6-chloro-3-((1-(2-cyano-7-methyl-3-(4-(1-methyl-1H-pyrazol-5-yl)piperidin-1-yl)quinoxalin-5-yl)ethyl)amino)picolinic acid]
6 | 31.3 | 1 | Cc1cc([C@@H](C)Nc2ccc(Cl)nc2C(=O)O)c2nc(N3CCN(c4ncc(C)s4)CC3)c(C#N)nc2c1 [Example 115, (R)-6-chloro-3-((1-(2-cyano-7-methyl-3-(4-(5-methylthiazol-2-yl)piperazin-1-yl)quinoxalin-5-yl)ethyl)amino)picolinic acid]
7 | 498 | 66 | Cc1cc([C@@H](C)Nc2ccc(Cl)nc2C(=O)O)c2nc(-n3ccnc3)c(C#N)nc2c1 [Example 117, (R)-6-chloro-3-((1-(2-cyano-3-(1H-imidazol-1-yl)-7-methylquinoxalin-5-yl)ethyl)amino)picolinic acid]
8 | 190 | 11 | Cc1cc([C@@H](C)Nc2ccc(Cl)nc2C(=O)O)c2nc(N(C)CCC(=O)N(C)C)c(C#N)nc2c1 [Example 114, (R)-6-chloro-3-((1-(2-cyano-3-((3-(dimethylamino)-3-oxopropyl)(methyl)amino)-7-methylquinoxalin-5-yl)ethyl)amino)picolinic acid]
9 | 19.4 | 0.5 | Cc1cc([C@@H](C)Nc2ccc(Cl)nc2C(=O)O)c2nc(N3CC[C@@H](F)C3)c(C#N)nc2c1 [Example 177, 6-chloro-3-(((R)-1-(2-cyano-3-((R)-3-fluoropyrrolidin-1-yl)-7-methylquinoxalin-5-yl)ethyl)amino)picolinic acid]
10 | 121 | 1.4 | Cc1cc([C@@H](C)Nc2ccc(Cl)nc2C(=O)O)c2nc(N3CC(F)(F)C3)c(C#N)nc2c1 [Example 128, (R)-6-chloro-3-((1-(2-cyano-3-(3,3-difluoroazetidin-1-yl)-7-methylquinoxalin-5-yl)ethyl)amino)picolinic acid]
11 | 73.8 | 1.9 | Cc1cc([C@@H](C)Nc2ccc(Cl)nc2C(=O)O)c2nc(N3CCO[C@@H](C)C3)c(C#N)nc2c1 [Example 260, 6-chloro-3-(((R)-1-(2-cyano-7-methyl-3-((S)-2-methylmorpholino)quinoxalin-5-yl)ethyl)amino)picolinic acid]
12 | 191 | 6.8 | Cc1cc([C@@H](C)Nc2ccc(Cl)nc2C(=O)O)c2nc(N3C[C@@H]4[C@H](CO)[C@@H]4C3)c(C#N)nc2c1 [Example 163, 6-chloro-3-(((R)-1-(2-cyano-3-((1R,5S,6S)-6-(hydroxymethyl)-3-azabicyclo[3.1.0]hexan-3-yl)-7-methylquinoxalin-5-yl)ethyl)amino)picolinic acid]
13 | 33.8 | 1.3 | Cc1cc([C@@H](C)Nc2ccc(Cl)nc2C(=O)O)c2nc(N3C[C@@H](F)[C@@H](F)C3)c(C#N)nc2c1 [Example 122, 6-chloro-3-(((R)-1-(2-cyano-3-((3S,4R)-3,4-difluoropyrrolidin-1-yl)-7-methylquinoxalin-5-yl)ethyl)amino)picolinic acid]
14 | 24.4 | 0.5 | Cc1cc([C@@H](C)Nc2ccc(Cl)nc2C(=O)O)c2nc(N3C[C@H](F)[C@@H](F)C3)c(C#N)nc2c1 [Example 178, 6-chloro-3-(((R)-1-(2-cyano-3-((3S,4S)-3,4-difluoropyrrolidin-1-yl)-7-methylquinoxalin-5-yl)ethyl)amino)picolinic acid]
15 | 57.8 | 1.6 | COC(=O)c1nc(Cl)ccc1N[C@H](C)c1cc(C)cc2nc(C#N)c(N3CC[C@@](C)(F)C3)nc12 (single isomer, unassigned) [Example 180]
16 | 55 | 2.1 | COC[C@@]1(F)CCN(c2nc3c([C@@H](C)Nc4ccc(Cl)nc4C(=O)O)cc(C)cc3nc2C#N)C1 (single isomer, unassigned) [Example 164]
17 | 330 | 18.8 | Cc1cc([C@@H](C)Nc2ccccc2C(=O)O)c2nc(N3CCC4(CC3)C(F)(F)C4(F)F)c(C#N)nc2c1 [Example 129, (R)-2-((1-(2-cyano-7-methyl-3-(1,1,2,2-tetrafluoro-6-azaspiro[2.5]octan-6-yl)quinoxalin-5-yl)ethyl)amino)benzoic acid]
18 | 126 | 1.9 | Cc1cc([C@@H](C)Nc2ccc(Cl)nc2C(=O)O)c2nc(NCCC(F)(F)F)c(C#N)nc2c1 [Example 124, (R)-6-chloro-3-((1-(2-cyano-7-methyl-3-((3,3,3-trifluoropropyl)amino)quinoxalin-5-yl)ethyl)amino)picolinic acid]
19 | 70.3 | 2.6 | Cc1cc([C@@H](C)Nc2ccc(Cl)nc2C(=O)O)c2nc(N3CC[C@@H](CO)C3)c(C#N)nc2c1 [Example 159, 6-chloro-3-(((R)-1-(2-cyano-3-((R)-3-(hydroxymethyl)pyrrolidin-1-yl)-7-methylquinoxalin-5-yl)ethyl)amino)picolinic acid]
20 | 44 | 1.7 | COC(=O)c1nc(Cl)ccc1N[C@H](C)c1cc(C)cc2nc(C#N)c(N3CC[C@](C)(F)C3)nc12 (single isomer, unassigned) [Example 181]

Row | SMILES | IC50 [1] [nM] | IC50 [2] [nM]
21 | Cc1cc([C@@H](C)Nc2ccc(Cl)nc2C(=O)O)c2nc(N3C4CCC3COC4)c(C#N)nc2c1 [Example 120, 3-(((1R)-1-(3-(3-oxa-8-azabicyclo[3.2.1]octan-8-yl)-2-cyano-7-methylquinoxalin-5-yl)ethyl)amino)-6-chloropicolinic acid] | 56.4 | 2.4

— US20240391882A1 (Mirati Therapeutics, Inc., priority 2023, published 2024)
